{"source": "patent US7524880B2", "about": "“Crystalline form of a substituted pyrrolidine compound” (Theravance, Inc., priority 2004, dated 2009)", "test_system": "pilocarpine-evoked salivation", "assay": "Inhalation guinea pig salivation assay", "format": "in vivo", "method": "Guinea pigs (Charles River, Wilmington, Mass.) weighing 200-350 g were acclimated to the in-house guinea pig colony for at least 3 days following arrival. Test compound or vehicle were dosed via inhalation (IH) over a 10 minute time period in a pie shaped dosing chamber (R+S Molds, San Carlos, Calif.). Test solutions were dissolved in sterile water and delivered using a nebulizer filled with 5.0 mL of dosing solution. Guinea pigs were restrained in the inhalation chamber for 30 minutes. During this time, guinea pigs were restricted to an area of approximately 110 cm^2. This space was adequate for the animals to turn freely, reposition themselves, and allow for grooming. […] Upon completion of nebulization, guinea pigs were evaluated at 1.5, 6, 12, 24, 48, or 72 hrs after treatment.\nGuinea pigs were anesthetized one hour before testing with an intramuscular (IM) injection of a mixture of ketamine 43.75 mg/kg, xylazine 3.5 mg/kg, and acepromazine 1.05 mg/kg at an 0.88 mL/kg volume. […] Saliva was collected for 10 minutes, at which point the gauze pad was weighed and the difference in weight recorded to determine the amount of accumulated saliva (in mg). The mean amount of saliva collected for animals receiving the vehicle and each dose of test compound was calculated. […] Results were calculated using result means (n=3 or greater). […]"}
{"smiles": "CNCCCCCCCCN1CC[C@@H](C(C(N)=O)(c2ccccc2)c2ccccc2)C1", "note": "[compound of formula I, 2-[(S)-1-(8-methylaminooctyl)pyrrolidin-3-yl]-2,2-diphenylacetamide]", "values": [{"measurement": "apparent lung selectivity index (ratio of anti-sialagogue ID50 to bronchoprotective ID50)", "value": "greater than 5"}]}
